In US20090062294A1, “HETEROARYL-SUBSTITUTED UREA MODULATORS OF FATTY ACID AMIDE HYDROLASE” (priority 2007, published 2009):

How the values were obtained:
FAAH = target: T1, FAAH (Homo sapiens, UniProt O00519); test: Assay Method 1: FAAH assay, 3H-anandamide hydrolysis in homogenate of T84 cells or SK-N-MC cells transfected with human FAAH; assay type: biochemical; details: average of results, > = solubility limit or highest concentration tested
T1 sequence (O00519 1-579): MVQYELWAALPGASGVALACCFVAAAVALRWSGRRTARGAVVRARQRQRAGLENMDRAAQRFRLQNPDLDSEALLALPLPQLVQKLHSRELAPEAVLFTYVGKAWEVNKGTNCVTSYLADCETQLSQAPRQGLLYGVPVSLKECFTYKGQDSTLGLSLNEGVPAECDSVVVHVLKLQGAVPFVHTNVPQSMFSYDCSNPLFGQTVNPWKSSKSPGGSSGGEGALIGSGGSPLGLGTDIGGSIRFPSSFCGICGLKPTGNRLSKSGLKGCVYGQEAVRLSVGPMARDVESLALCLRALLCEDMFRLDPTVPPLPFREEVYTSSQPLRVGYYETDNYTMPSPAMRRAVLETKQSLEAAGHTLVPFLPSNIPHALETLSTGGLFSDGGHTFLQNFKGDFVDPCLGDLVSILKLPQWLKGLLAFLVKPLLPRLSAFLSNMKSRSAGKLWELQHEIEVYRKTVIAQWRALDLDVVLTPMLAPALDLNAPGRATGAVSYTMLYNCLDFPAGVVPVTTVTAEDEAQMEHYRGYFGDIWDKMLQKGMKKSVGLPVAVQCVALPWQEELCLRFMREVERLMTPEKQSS
Summary of the method: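 Homogenates of T84 cells or of SK-N-MC cells stably transfected with human FAAH (G418-selected) were prepared in pH 9 Tris/EDTA/glycerol/Triton buffer. They were incubated with compound and 80 nM final ^3H-anandamide for 1 h at rt. Released ^3H-ethanolamine was separated on activated charcoal and counted by scintillation.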

rat FAAH = target: T2, rat FAAH (Rattus norvegicus, UniProt P97612); test: Assay Method 2: FAAH assay, 3H-anandamide hydrolysis in homogenate of SK-N-MC cells transfected with rat FAAH; assay type: biochemical; details: average of results, > = solubility limit or highest concentration tested
T2 sequence (P97612 1-579): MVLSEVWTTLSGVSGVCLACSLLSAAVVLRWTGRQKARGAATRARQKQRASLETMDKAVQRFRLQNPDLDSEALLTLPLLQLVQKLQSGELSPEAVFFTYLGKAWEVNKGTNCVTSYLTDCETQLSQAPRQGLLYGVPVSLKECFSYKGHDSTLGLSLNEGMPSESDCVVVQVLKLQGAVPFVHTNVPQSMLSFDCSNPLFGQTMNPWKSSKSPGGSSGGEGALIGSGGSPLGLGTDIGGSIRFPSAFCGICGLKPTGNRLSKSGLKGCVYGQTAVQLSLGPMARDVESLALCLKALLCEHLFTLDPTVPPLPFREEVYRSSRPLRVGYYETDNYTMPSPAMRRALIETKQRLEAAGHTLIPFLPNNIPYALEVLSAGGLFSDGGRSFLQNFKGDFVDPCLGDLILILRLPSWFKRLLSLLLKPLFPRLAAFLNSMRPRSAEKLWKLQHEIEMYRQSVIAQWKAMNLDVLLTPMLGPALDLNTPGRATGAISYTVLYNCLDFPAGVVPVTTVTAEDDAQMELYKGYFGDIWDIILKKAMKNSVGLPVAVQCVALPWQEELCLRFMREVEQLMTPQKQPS
Summary of the method: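 Homogenate of SK-N-MC cells stably transfected with rat FAAH cDNA (G418-selected clones) in pH 9 Tris/EDTA/glycerol/Triton buffer. Incubated with compound and 80 nM final [3H]-anandamide for 1 h at rt. Released [3H]-ethanolamine separated from substrate on activated charcoal filters and counted by scintillation.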

IC50 (FAAH) [nM]	IC50 (rat FAAH) [nM]	Compound
6	4	O=C(Nc1noc2ccccc12)N1CCN(Cc2cccc(Oc3ccc(C(F)(F)F)cc3)c2)CC1 [Example 109, N-1,2-Benzisoxazol-3-yl-4-{3-[4-(trifluoromethyl)phenoxy]benzyl}-piperazine-1-carboxamide]
19	15	O=C(Nc1noc2cc(F)ccc12)N1CCN(Cc2cccc(Oc3ccc(Cl)cc3)c2)CC1 [Example 245, 4-[3-(4-Chloro-phenoxy)-benzyl]-piperazine-1-carboxylic acid (6-fluoro-benzo[d]isoxazol-3-yl)-amide]
